According to patent US9192662B2, “Methods using immunomodulatory compounds for modulating level of CD59” (Celgene Corporation, priority 2008, dated 2015):

What was measured:
CD59 mRNA [1] = experiment: CD59 mRNA levels in alpha-CD3/CD28 stimulated T cells (Affymetrix gene array); assay type: cell-based, Human; conditions: CD4+ T cells, anti-CD3/anti-CD28 stimulation; 3, 6, 12 and 24 hours; lenalidomide 10 μM, CC-4047 1 μM; FIG. 3
Procedure: Human PBMCs were isolated from buffy coat from four healthy volunteers using ficoll gradient centrifugation CD4+ T cells were isolated from each batch of PBMCs using anti-CD4 microbeads (Miltenyi). Cells were treated with 0.1% DMSO or 4-amino-2-(2,6-dioxopiperidin-3-yl)isoindoline-1,3-dione (1 μM) 1 or lenalidomide (10 μM) in the presence or absence of anti-CD3/anti-CD28 stimulation over a time course which included 3, 6, 12 and 24 hours of treatment. Cells were harvested at indicated times and RNA isolated as described above. Methods for Affymetrix gene array analysis were as described above.

CD59 mRNA [2] = experiment: CD59 mRNA levels in PBMCs (Affymetrix gene array); assay type: cell-based, Human; conditions: PBMCs from healthy volunteers; 24, 48 and 72 hours; lenalidomide 10 μM, CC-4047 1 μM; FIG. 1
Procedure: Human PBMCs were isolated from buffy coat from healthy volunteers using ficoll gradient centrifugation. PBMCs were treated with 4-amino-2-(2,6-dioxopiperidin-3-yl)isoindoline-1,3-dione (1 μM) or lenalidomide (10 μM) or vehicle control (0.1% DMSO) for 24 hours, 48 hours, and 72 hours. Cells were harvested and RNA isolated as above. Methods for Affymetrix gene array analysis were as described above.

CD59 mRNA [3] = experiment: CD59 mRNA levels in several in vitro cellular models in Affymetrix gene array experiments; assay type: cell-based; conditions: primary T cells, primary monocytes, NK cells, cultured PBMCs from normal and CLL patients, Namalwa Burkitt's lymphoma cell line
From the text: In certain embodiments, the immunomodulatory compounds provided herein, such as 3-(4-amino-1-oxo-1,3-dihydro-isoindol-2-yl-piperidine-2,6-dione (lenalidomide), 4-amino-2-(2,6-dioxopiperidin-3-yl)isoindoline-1,3-dione or N-{[2-(2,6-dioxo(3-piperidyl)-1,3-dioxoisoindolin-4-yl]methyl}cyclopropyl-carboxamide, induce increase in the mRNA levels of CD59 in several in vitro cellular models in Affymetrix gene array experiments (both primary cells and cell lines). In certain aspects, this increase is found in primary T cells, primary monocytes, NK cells, cultured PBMCs from normal and CLL patients, and the Namalwa Burkitt's lymphoma cell line.
Namalwa cells are cultured in RPM1 supplemented with 10% fetal bovine serum. Cells are treated with vehicle control (0.1% DMSO) or 4-amino-2-(2,6-dioxopiperidin-3-yl)isoindoline-1,3-dione (10 μM) or lenalidomide (10 μM) for 8 hours and 24 hours. Cells are harvested and RNA isolated as described above. Methods for Affymetrix gene array analysis are as described above.
PBMCs are isolated from whole blood from CLL patients (MD Anderson) using ficoll gradient centrifugation. Cells are treated with 4-amino-2-(2,6-dioxopiperidin-3-yl)isoindoline-1,3-dione (1 μM), lenalidomide (10 μM) or N-{[2-(2,6-dioxo(3-piperidyl)-1,3-dioxoisoindolin-4-yl]methyl}cyclopropyl-carboxamide (10 μM) for 24 and 48 hours. Samples from five CLL patients are analyzed individually. Cells are harvested and RNA isolated as described above. Methods for Affymetrix gene array analysis are as described above.

CD59 mRNA [4] = experiment: CD59 mRNA levels in unstimulated monocytes (Affymetrix gene array); assay type: cell-based, Human; conditions: CD14+ monocytes from healthy volunteers, after treatment with 10 nM or more, FIG. 2
Procedure: Human PBMCs were isolated from buffy coat from three healthy volunteers using ficoll gradient centrifugation. CD14+ monocytes were isolated from each batch of PBMCs using anti-CD14 microbeads (Miltenyi). Cells were treated with 0.1% DMSO or 4-amino-2-(2,6-dioxopiperidin-3-yl)isoindoline-1,3-dione (1 μM) 1 or lenalidomide (10 μM) for 30 minutes. Thereafter the cells were either left unstimulated or stimulated with 100 ng/ml LPS and incubated for 6 hours. After the incubation period the cells were lysed in TRI reagent (Sigma) for RNA isolation. The RNAs isolated using the TRI reagent RNA isolation protocol, were column cleaned (Qiagen) and the RNAs kept separate from the donors, were pooled for cDNA synthesis. Briefly, double-stranded cDNA will be synthesized using 2-5 μg of total RNA. Biotin-labeled cRNA will be synthesized using MessageAmp aRNA kit (Ambion), 15 μg of cRNA fragmented and hybridized to each Affymetrix human UI 33A array. The above procedures will be done twice for each RNA sample to obtain replicate biotin-labeled probes. Data analysis was performed using GeneSpring (Agilent).

Nc1cccc2c1CN(C1CCC(=O)NC1=O)C2=O (stereo not drawn) [lenalidomide, 3-(4-amino-1-oxo-1,3-dihydro-isoindol-2-yl)-piperidine-2,6-dione]
increase: CD59 mRNA levels in α-cd3/cd28 stimulated T cells (CD59 mRNA [1]) | CD59 mRNA levels in PBMC cells (CD59 mRNA [2]) | mRNA levels of CD59 in several in vitro cellular models (CD59 mRNA [3]) | CD59 mRNA levels in unstimulated monocytes (CD59 mRNA [4])

Nc1cccc2c1C(=O)N(C1CCC(=O)NC1=O)C2=O (stereo not drawn) [CC-4047, 4-amino-2-(2,6-dioxopiperidin-3-yl)isoindoline-1,3-dione]
increase: CD59 mRNA levels in α-cd3/cd28 stimulated T cells (CD59 mRNA [1]) | CD59 mRNA levels in PBMC cells (CD59 mRNA [2]) | mRNA levels of CD59 in several in vitro cellular models (CD59 mRNA [3]) | CD59 mRNA levels in unstimulated monocytes (CD59 mRNA [4])

O=C1CCC(N2C(=O)c3cccc(CNC(=O)C4CC4)c3C2=O)C(=O)N1 (stereo not drawn) [N-{[2-(2,6-dioxo(3-piperidyl)-1,3-dioxoisoindolin-4-yl]methyl}cyclopropyl-carboxamide]
increase: mRNA levels of CD59 in several in vitro cellular models (CD59 mRNA [3])
